{"source": "paper PMC6249675", "about": "(Structure (London, England : 1993), 2018)", "key": {"Rac1 [1]": {"molecular_target": "T1, Rac1 (Homo sapiens, UniProt P63000)", "test": "strong anion exchange chromatography of co-purified nucleotide", "format": "binding", "conditions": "co-purified from E. coli"}, "Rnd3": {"molecular_target": "T2, Rnd3 (Homo sapiens, UniProt P61587)", "T2 sequence (P61587 19-200)": "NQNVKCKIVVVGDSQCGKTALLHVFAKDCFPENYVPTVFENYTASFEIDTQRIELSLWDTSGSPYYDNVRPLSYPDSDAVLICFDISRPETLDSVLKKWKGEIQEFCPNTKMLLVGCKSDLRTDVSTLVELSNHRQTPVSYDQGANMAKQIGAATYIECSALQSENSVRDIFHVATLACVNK", "test": "strong anion exchange chromatography of co-purified nucleotide", "format": "binding", "conditions": "co-purified from E. coli; not hydrolysed"}, "Rac1 [2]": {"molecular_target": "T1, Rac1", "test": "GTP hydrolysis followed by strong anion exchange chromatography", "format": "biochemical", "conditions": "5 mM GTP, 5 mM MgCl2, room temperature, 24 h"}}, "data": [{"smiles": "Nc1nc2c(ncn2[C@@H]2O[C@H](COP(=O)(O)OP(=O)(O)O)[C@@H](O)[C@H]2O)c(=O)[nH]1", "note": "[GDP]", "values": [{"measurement": "strong anion exchange chromatography of co-purified nucleotide", "setting": "Rac1 [1]", "value": "wild-type Rac1 which, like other active GTPases, is bound predominantly to GDP"}]}, {"smiles": "Nc1nc2c(ncn2[C@@H]2O[C@H](COP(=O)(O)OP(=O)(O)OP(=O)(O)O)[C@@H](O)[C@H]2O)c(=O)[nH]1", "note": "[GTP]", "values": [{"measurement": "strong anion exchange chromatography of co-purified nucleotide", "setting": "Rnd3", "value": "N-GTPase is similar to the pseudoGTPase Rnd3, which binds only GTP (Fig. 4d)"}, {"measurement": "GTP hydrolysis followed by strong anion exchange chromatography", "setting": "Rac1 [2]", "value": "Rac1 (preloaded with GTP) exhibits complete hydrolysis of GTP to GDP in identical conditions"}]}]}
